Read-outs that look alike come from different tables or passages of the source.
Experiments:
Test in all cases: Glasshouse assay for herbicidal activity (pre- and post-emergence), percentage phytotoxicity
Type in all cases: in vivo
[1] = tested on: Alopecurus myosuroides (ALOMY); conditions: Alopecurus myosuroides; for pest or weed control at 250 g/ha: visual assessment (100%=total damage, 0%=no damage)
In short: (§1)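 Percent injury was estimated by eye on a scale where 0% means no damage and 100% complete damage. Ratings came 15 DAA post-emergence and 20 DAA pre-emergence, with plants held under 16 h light and 65% humidity at 24/18 °C or 20/16 °C day/night.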

[2] = tested on: Lolium perenne (LOLPE); conditions: Lolium perenne; for pest or weed control at 250 g/ha: visual assessment (100%=total damage, 0%=no damage)
In short: as §1

[3] = tested on: Echinochloa crus-galli (ECHCG); conditions: Echinochloa crus-galli; for pest or weed control at 250 g/ha: visual assessment (100%=total damage, 0%=no damage)
In short: as §1

[4] = tested on: Avena fatua (AVEFA); conditions: Avena fatua; for pest or weed control at 250 g/ha: visual assessment (100%=total damage, 0%=no damage)
In short: as §1

[5] = post-emergence, 360 h, post-emergence, 15 DAA, read-out: Post-emergence herbicidal activity (percentage phytotoxicity) ALOMY POST
[6] = pre-emergence, 480 h, pre-emergence, 20 DAA, read-out: Pre-emergence herbicidal activity (percentage phytotoxicity) ALOMY PRE
[7] = post-emergence, 360 h, post-emergence, 15 DAA, read-out: Post-emergence herbicidal activity (percentage phytotoxicity) LOLPE POST
[8] = pre-emergence, 480 h, pre-emergence, 20 DAA, read-out: Pre-emergence herbicidal activity (percentage phytotoxicity) LOLPE PRE
[9] = post-emergence, 360 h, post-emergence, 15 DAA, read-out: Post-emergence herbicidal activity (percentage phytotoxicity) ECHCG POST
[10] = pre-emergence, 480 h, pre-emergence, 20 DAA, read-out: Pre-emergence herbicidal activity (percentage phytotoxicity) ECHCG PRE
[11] = post-emergence, 360 h, post-emergence, 15 DAA, read-out: Post-emergence herbicidal activity (percentage phytotoxicity) AVEFA POST
[12] = pre-emergence, 480 h, pre-emergence, 20 DAA, read-out: Pre-emergence herbicidal activity (percentage phytotoxicity) AVEFA PRE

SMILES	pest or weed control at 250 g/ha [1, 5] [%]	pest or weed control at 250 g/ha [1, 6] [%]	pest or weed control at 250 g/ha [2, 7] [%]	pest or weed control at 250 g/ha [2, 8] [%]	pest or weed control at 250 g/ha [3, 9] [%]	pest or weed control at 250 g/ha [3, 10] [%]	pest or weed control at 250 g/ha [4, 11] [%]	pest or weed control at 250 g/ha [4, 12] [%]	pest or weed control at 16 g/ha [1, 5] [%]	pest or weed control at 16 g/ha [1, 6] [%]	pest or weed control at 16 g/ha [2, 7] [%]	pest or weed control at 16 g/ha [2, 8] [%]	pest or weed control at 16 g/ha [3, 9] [%]	pest or weed control at 16 g/ha [3, 10] [%]	pest or weed control at 16 g/ha [4, 11] [%]	pest or weed control at 16 g/ha [4, 12] [%]
CCc1cc(-n2cc(Cl)cn2)cc(C)c1C1C(=O)CC(CC(=O)NC(C)(C)C)C1=O (centres unmarked) [Compound B135]	100	100	100	100	100	100	100	90								
C/C=C/c1cc(C)c(C2C(=O)CC(CC(=O)NC(C)(C)C)C2=O)c(CC)c1 (centres unmarked) [Compound B136]									60	90	100	90	90	100	100	100
C/C=C/c1cc(C)c(C2C(=O)CC(CC(=O)N3CCOCC3)C2=O)c(CC)c1 (centres unmarked) [Compound B137]	100	20	100	50	90	60	100	50								
Cc1cc(C)c(C2C(=O)CC(CC(=O)NC3(C(F)(F)F)CC3)C2=O)c(C)c1 (centres unmarked) [Compound B138]	90	80	80	70	80	90	70	0								
Cc1cc(OCC(F)(F)F)cc(C)c1C1C(=O)CC(CC(=O)NC(C)(C)C)C1=O (centres unmarked) [Compound B139]	90	60	80	90	100	100	90	50								
Cc1cc(Br)cc(C)c1C1C(=O)CC(CC(=O)NC(C)C)C1=O (centres unmarked) [Compound B140]	90	90	90	90	80	70	90	80								
Cc1cc(Br)cc(C)c1C1C(=O)CC(CC(=O)NCC2CC2(Cl)Cl)C1=O (centres unmarked) [Compound B141]	80	90	80	80	80	70	90	60								
Cc1cc(Br)cc(C)c1C1C(=O)CC(CC(=O)NCC2CC2C(F)F)C1=O (centres unmarked) [Compound B142]	90	90	90	70	80	0	90	70								
Cc1cc(-c2ncc(Cl)cc2F)cc(C)c1C1C(=O)CC(CC(=O)NCC2CC2C(F)F)C1=O (centres unmarked) [Compound B143]	100	90	100	100	100	100	100	90								
CCCNC(=O)CC1CC(=O)C(c2c(C)cc(-c3ncc(Cl)cc3F)cc2C)C1=O (centres unmarked) [Compound B144]	100	100	100	100	100	100	100	100								

Reference: patent US10206394B2, “Herbicidal compounds” (Syngenta Participations AG, priority 2014, dated 2019)
